Key:
[1] = Chromatographic (RP-HPLC) examination of lipophilicity, Snyder–Soczewiński model; assay type: physicochemical
Experimental: The chromatographic analysis was carried out on a Shimadzu device equipped with a pump system (LC-20AD model), a detector with a diode bench (SPD-M20A model), a degasser (DGU-20A 5R model), a chromatographic oven (CTO-10AS VP), autosampler (SIL-20AC HT model), and chromatographic column (LiChrospher 100 RP-18, 5 μm, Poznań, Poland). Analyses were performed, leading to a multicratic elution. The mobile phase was methanol (J. T. Backer, Phillipsburg, NJ, USA) or acetonitrile (J. T. Backer) and water (Hydrolab, HPL5UV model, Straszyn, Poland) in different volume ratios. In individual analyses, the concentration of the organic modifier expressed as a […] was 0.75–0.95 with a constant step of 0.05. The test compounds were dissolved in methanol. The injection volume was 10 µL. The flow was set at 1 mL/min, the temperature of the chromatography oven at 25 °C, and the detector temperature at 2 °C higher than the ambient temperature. Compounds were detected in the range 190–800 nm. All samples were tested in duplicate at least. Column dead time (tM) was determined using uracil (Sigma Aldrich). The retention coefficient was calculated using the following formula:(1) k=tR/tM−1, where tR is the retention time of the test compound in a given eluent composition, and tM is the chromatographic column dead time.
The value of lipophilicity was determined using the linear dependence of the decimal logarithm from the retention coefficient (logk) and the concentration of the organic modifier in the mobile phase, which was expressed as a volume fraction. For this purpose, the following formula was used:(2) logk=logkw+Sφ, where logk is the decimal logarithm of the retention coefficient, logkw is the value obtained by extrapolating the curve, S is the slope of the regression curve, and φ is the volume fraction of the organic modifier.
The coefficient of determination (R^2) was also calculated for the prepared curves.

B16F10 cells = assay: Antiproliferative activity, MTT protocol; assay type: cell-based, mouse; conditions: 0.01 mg/mL, 72 h, relative to control culture
Experimental: Mouse melanoma (B16F10), human lung carcinoma (A549), and human cervix (HeLa) cell lines (kindly gifted by Prof. Tomasz Drewa, a Chair of Urology, Department of Regenerative Medicine, Collegium Medicum, Nicolaus Copernicus University, Bydgoszcz, Poland) were cultivated at 37 °C, controlled CO2 atmosphere (Binder, Tuttlingen, Germany), and high humidity with RPMI cell culture medium (with L-glutamine and sodium bicarbonate, Sigma-Aldrich), supplemented with 10% of fetal bovine serum (FBS, Biowest, Nuaillé, France), as well as antibiotics (penicillin, streptomycin) and antimycotics (amphotericin B) (Sigma-Aldrich). Combretastatin A4 (CA4), doxorubicin (DoX), and […] were purchased from Sigma-Aldrich.
Cells were counted with an automated cell counter (Countess® II FL, Invitrogen by Thermo Fisher Scientific Inc., Waltham, MA, USA). […] Absorbance readout was conducted using plate reader Multiskan Spectrum (Thermo Electron Corporation, Waltham, MA, USA) at 570 nm.
Combretastatin A4 (CA4), doxorubicin (DX), and […] were employed as positive controls. Biological evaluation was performed as three independent experiments; mean response and standard deviation were calculated using Excel software (v. 2013, Microsoft Corporation, Redmond, WA, USA).

[2] = tested on: Human Serum Albumin (HSA); assay: Binding to albumin, fluorescence quenching; conditions: calculated from association constant KS for albumin concentration in blood of 44 mg/mL (660 μM)
Experimental: Fluorescence lifetime and fluorescence intensity of HSA solutions were measured using the time-resolved Fluorescence Spectrophotometer Life Spec II (Edinburgh Instruments Ltd., Livingston, UK) with the sub-nanosecond pulsed EPLED diode emitting a light of the wavelength 280 nm. The spectrometer was equipped with electronically cooled photomultiplier Hamamatsu R928 connected with TCC900 PC Card, which incorporates all the electronic modules required for Time-Correlated Single Photon Counting (TCSPC). The fluorescence decays were recorded at an emission wavelength of 350 nm. The data were fitted with an exponential decay to obtain total fluorescence intensity and lifetime. Measurements were performed at room temperature using quartz cuvettes 3.5 × 10 mm. The exposure time of the sample was 30 s. A spectrophotometer Jasco V-550 was used for absorption measurements.
Human Serum Albumin (HSA, 97%) was purchased from Sigma Aldrich. For the fluorescence quenching measurements, the 10 µM PBS solution of HSA at pH 7.4 was prepared, and 10 mM stock solutions of studied compounds were prepared in DMSO (dimethylsulfoxide). The final concentration of studied compounds in HSA solution varied between 0 and 70 µM.
Fluorescence quenching of albumin can be described by the Stern–Volmer Equation [21]: (3) F0/F=KSV[Q]+1, where F0 and F are the fluorescence intensities in the absence and presence of quencher, respectively, [Q] is the concentration of quencher, and KSV is the Stern–Volmer quenching constant.
Due to the fact that a quencher can absorb light at the excitation and/or emission wavelengths, the measured intensity should be corrected according to the Formula [22]:(4) Fobserved=Fcorrect×10^−Aex×dex/2−Aem×dem/2, where Fobserved is the measured fluorescence, Fcorrect is the fluorescence that would be measured in the absence of absorption effect, Aex and Aem are the absorbances of ligand at the excitation (280 nm) and emission wavelength (350 nm), respectively, and dex and dem are the cuvette pathlength in the excitation and emission direction (0.35 cm and 1 cm, respectively).
As the fluorophore can be quenched by collisions or by complex formation with the quencher, there are two types of quenching: dynamic and static. They can be distinguished by lifetime measurements. […] If the quenching is known to be dynamic, then:(5) F0/F=KD[Q]+1=τ0/τ, where τ0 and τ are the lifetimes in the absence and presence of quencher, and KD is the dynamic quenching constant.
In many cases, both static and dynamic quenching occurs for the same fluorophore, then modified Stern–Volmer equation has the form:(6) F0/F=(KD[Q]+1)(KS[Q]+1)=τ0/τ(KS[Q]+1),
The dynamic portion of the quenching (KD[Q] + 1), according to Equation (5), can be determined by lifetime measurements. The portion (KS[Q] + 1) relates to static quenching, and KS is the association constant, which is given by:(7) KS=[F−Q]/[F][Q], where [F−Q] is the concentration of complex fluorophore–quencher, [F] is the concentration of uncomplexed fluorophore (concentration of free HSA molecules), and [Q] is the concentration of quencher.
In this study, the tested compounds were added to the HSA solution, and the fluorescence intensity and lifetime at 350 nm were measured for varying concentrations of ligands. On the basis of absorbance measurements of ligands at 280 nm and 350 nm, the correct fluorescence intensities were estimated using Equation (4). Then, the Stern–Volmer constants, dynamic quenching constants, and association constants of studied compounds were determined using Equations (3), (5) and (6), respectively.
Knowing the value of association constant KS, it is possible to determine the theoretical percentage of the bound and free fraction of the drug for the physiological concentration of albumin. […]

## O=C1C(=Cc2cccc3ccccc23)C(=O)c2ccccc21 [Compound 3F, 2-[(naphthalen-1-yl)methylidene]-1H-indene-1,3(2H)-dione]
[1]; RP-HPLC, acetonitrile as organic modifier, extrapolated Snyder–Soczewiński curve
  logkw (ACN): 2.6107
[1]; RP-HPLC, methanol as organic modifier, extrapolated Snyder–Soczewiński curve
  logkw (MeOH): 3.9640
[1]; difference of logkw between modifiers
  Δ = |logkw-MeOH − logkw-ACN|: 1.3533
[1]; slope of the Snyder–Soczewiński regression curve, acetonitrile as organic modifier
  −S (ACN): 2.7449
[1]; slope of the Snyder–Soczewiński regression curve, methanol as organic modifier
  −S (MeOH): 3.8549
B16F10 cells
  Response of B16F10 cells (in words): responded best
[2]
  bound fraction (albumin): 93%
[2]; human, human serum albumin solution (10 µM HSA), pH 7.4, read-out: free fraction (albumin)
  fraction unbound: 0.07

From paper PMC8434099, “Selected Drug-Likeness Properties of 2-Arylidene-indan-1,3-dione Derivatives—Chemical Compounds with Potential Anti-Cancer Activity” (Molecules, 2021)
